± gives the expanded uncertainty stated by the source.
Details: Crystal; visual observation

CC1(C)COP(=O)(C(Nc2ccccc2)c2ccccc2)OC1 (stereo unspecified)
Normal melting temperature: 175 ± 2 °C

Source: the NIST ThermoML archive (doi:10.1021/acs.jced.7b00585)
